Read-outs that look alike come from different tables or passages of the source.
Assays:
Type in all cases: in vivo
[1] = system: S. aureus Smith (ATCC 13709); experiment: Mouse systemic infection (septicemia) model, S. aureus Smith; settings: Staphylococcus aureus, CD-1 female mice; for responders at 3 mg/kg: ATCC13709, iv, IV 3 mg/kg one hour post infection, read-out: SA Smith septicemia survival IV (3 mg/kg); for responders at 3 mg/kg / responders at 30 mg/kg: 48 h, survival at 48 hours; for responders at 30 mg/kg: ATCC13709, po, PO 30 mg/kg one hour post infection, read-out: SA Smith septicemia survival PO (30 mg/kg); for ED50: ATCC13709, dose that prevents 50% of the mice from death, 48 hours
Procedure: Mouse Systemic Infection Protocol-S. aureus Smith Septicemia
Compounds were screened for antibacterial activity in vivo in a mouse systemic infection (septicemia) model. In the model, CD-1 female mice (18-22 grams) were injected IP with a S. aureus Smith (ATCC 13709) inoculum that results in 0% survival within 24 to 48 hours. The bacterial dose required to achieve this effect was previously established through virulence studies. At one hour post infection, mice received either […] IV or […] PO. Typically, six mice were treated per dose group. Animal survival was assessed and recorded for 48 hours. Percent survival at 48 hours was recorded and PD50 (mg/kg) was determined for each compound tested.

[2] = system: Uropathogenic E. coli EC200; experiment: Murine kidney infection model, uropathogenic E. coli EC200; settings: Escherichia coli, po, 36 h, BALB/c mice, read-out: EC200 UTI PO, log10 reduction in CFUs in the kidney versus untreated controls; for log reduction at 2 mg/kg: PO 2 mg/kg at 12 and 24 hours post infection
Procedure: (§1) Kidney Infection Models for Uropathogenic E. coli EC200 and K. pneumoniae ESBL Isolate KP453
Compounds were tested in a BALB/c murine kidney infection model challenged with tetracycline-resistant E. coli strain uropathogenic […] via intravenous injection. […] For IV administration test compound was dosed at 3 mg/kg. Thirty-six hours following initiation of treatment, mice were euthanized and bacterial reduction in the kidney was quantified by plating kidney homogenates. Results are reported in Table D as log10 reduction in colony forming units (CFUs) in the kidney versus untreated controls (receiving no test compound).

[3] = system: K. pneumoniae ESBL Isolate KP453; experiment: Murine kidney infection model, K. pneumoniae ESBL isolate KP453; settings: Klebsiella pneumoniae, po, 36 h, BALB/c mice, PO 50 mg/kg at 9 and 24 hours post infection; read-out: KP453 ESBL UTI PO, log10 reduction in CFUs in the kidney versus untreated controls
Procedure: as §1
Compounds were also tested in BALB/c murine kidney infection model challenged with levofloxacin-resistant, ESBL^+ strain KP453 via intravenous injection with 2% carageenen. At 9 and 24 hours post infection mice were treated orally with 50 mg/kg of test compound. For IV administration, test compounds were dosed at 20 mg/kg. At 36 hours following initiation of treatment, mice were euthanized and bacterial reduction in the kidney was quantified by plating homogenates. Results are reported in Table D as log10 reduction in colony forming units (CFUs) in the kidney versus untreated controls (receiving no test compound).

[4] = Pharmacokinetic studies in rats; settings: rat, plasma, male Sprague Dawley rats, fasted; for clearance: read-out: Cl, IV Rat PK; for bioavailability: oral 10 mg/kg vs IV 1 mg/kg, read-out: % F (oral bioavailability), Oral Rat PK; for Cmax: read-out: Cmax, IV Rat PK
Procedure: Pharmacokinetic Studies in Rats Test compounds were evaluated in fasted (no food for 18 hours prior to dosing) male Sprague Dawley rats (3 animals per group) by administration of 1 mg/kg intravenously into the jugular vein and […] by oral gavage. Ten plasma samples were drawn for each dosing route up to 24 hours into heparin-coated vacutainer tubes. The plasma concentrations of the test compounds were quantified by LC/MS/MS using an internal standards. WinNONLIN was used to determine PK parameters ±standard deviation (AUC, Cmax, CL, Vss and % oral bioavailabilty (% F) and are set forth in Table F.

[5] = IV, read-out: SA Smith septicemia PD50 IV
[6] = PO, read-out: SA Smith septicemia PD50 PO
[7] = IV 1 mg/kg, read-out: AUC, IV Rat PK
[8] = oral gavage 10 mg/kg, read-out: AUC, Oral Rat PK

SMILES | responders at 3 mg/kg [1] [%] | responders at 30 mg/kg [1] [%] | log reduction at 2 mg/kg [2] | log reduction at 50 mg/kg [3] | further results
CN(C)[C@@H]1C(O)=C(C(N)=O)C(=O)[C@@]2(O)C(O)=C3C(=O)c4c(O)cc(CN5CCCC5(C)C)c(F)c4C[C@H]3C[C@@H]12 [Compound S2-4-12] | 100 | 100 | 2.51 | 2.15 | ED50 [1, 5]: 0.69 mg/kg; ED50 [1, 6]: 2.1 mg/kg; clearance ([4]; IV 1 mg/kg): 21.3 mL/min/kg; bioavailability [4]: 14.6%; AUC [4, 7]: 754 ng·h/mL; Cmax ([4]; IV 1 mg/kg): 126 ng/mL; AUC [4, 8]: 1160 ng·h/mL
CC1CCN(Cc2cc(O)c3c(c2F)C[C@H]2C[C@H]4[C@H](N(C)C)C(O)=C(C(N)=O)C(=O)[C@@]4(O)C(O)=C2C3=O)CC1 [Compound S2-4-19] | 100 | 83 | 1.91 | 1.27 | ED50 [1, 5]: 1 mg/kg; ED50 [1, 6]: 14.3 mg/kg; clearance ([4]; IV 1 mg/kg): 5 mL/min/kg; bioavailability [4]: 14.9%; AUC [4, 7]: 3320 ng·h/mL; Cmax ([4]; IV 1 mg/kg): 518 ng/mL; AUC [4, 8]: 4980 ng·h/mL
CN(C)[C@@H]1C(O)=C(C(N)=O)C(=O)[C@@]2(O)C(O)=C3C(=O)c4c(O)cc(CN(C)C(C)(C)C5CC5)c(F)c4C[C@H]3C[C@@H]12 [Compound S2-4-29] | 100 | 100 | – | – | ED50 [1, 5]: 1 mg/kg; ED50 [1, 6]: 3.5 mg/kg; clearance ([4]; IV 1 mg/kg): 26.5 mL/min/kg; bioavailability [4]: 25.4%; AUC [4, 7]: 616 ng·h/mL; Cmax ([4]; IV 1 mg/kg): 112 ng/mL; AUC [4, 8]: 1600 ng·h/mL
C[C@H]1CCCCN1Cc1cc(O)c2c(c1F)C[C@H]1C[C@H]3[C@H](N(C)C)C(O)=C(C(N)=O)C(=O)[C@@]3(O)C(O)=C1C2=O [Compound S2-4-65] | 100 | 100 | 3.18 | 2.28 | ED50 [1, 6]: 8.4 mg/kg; log reduction at 12 mg/kg ([2]; PO @ 12 mpk): 4.61
CN(C)[C@@H]1C(O)=C(C(N)=O)C(=O)[C@@]2(O)C(O)=C3C(=O)c4c(O)cc(CN5CCCC5)c(F)c4C[C@H]3C[C@@H]12 [Compound S3-5-5] | 100 | 100 | 2.26 | 1.01 | –
CN(C)[C@@H]1C(O)=C(C(N)=O)C(=O)[C@@]2(O)C(O)=C3C(=O)c4c(O)cc(CN5CCCC5(C)C)c(Cl)c4C[C@H]3C[C@@H]12 [Compound S15-13-4] | 100 | 100 | 3.17 | 1.69 | ED50 [1, 6]: 6.2 mg/kg
CCN(Cc1cc(O)c2c(c1Cl)C[C@H]1C[C@H]3[C@H](N(C)C)C(O)=C(C(N)=O)C(=O)[C@@]3(O)C(O)=C1C2=O)[C@H](C)C(C)(C)C [Compound S15-13-122] | – | – | 2.64 | 1.84 | –
CN(C)[C@@H]1C(O)=C(C(N)=O)C(=O)[C@@]2(O)C(O)=C3C(=O)c4c(O)cc(CN5CCCC5)c(Cl)c4C[C@H]3C[C@@H]12 [Compound S15-13-187] | 100 | 100 | – | – | log reduction at 3 mg/kg ([2]; PO @ 3 mpk): 3.46
C[C@H]1CCCN1Cc1cc(O)c2c(c1Cl)C[C@H]1C[C@H]3[C@H](N(C)C)C(O)=C(C(N)=O)C(=O)[C@@]3(O)C(O)=C1C2=O [Compound S15-13-194] | 100 | 100 | 3.44 | 2.18 | –
CN(C)[C@@H]1C(O)=C(C(N)=O)C(=O)[C@@]2(O)C(O)=C3C(=O)c4c(O)cc(NC(=O)CN5CCCC5)cc4C[C@H]3C[C@@H]12 [Compound S21-12-1] | 100 | 33 | – | – | –
COc1c(CN2CCCC2(C)C)cc(O)c2c1C[C@H]1C[C@H]3[C@H](N(C)C)C(O)=C(C(N)=O)C(=O)[C@@]3(O)C(O)=C1C2=O [Compound S24-9-10] | 100 | 100 | – | – | –
COc1c(CN2CCCC[C@@H]2C)cc(O)c2c1C[C@H]1C[C@H]3[C@H](N(C)C)C(O)=C(C(N)=O)C(=O)[C@@]3(O)C(O)=C1C2=O [Compound S24-9-17] | 100 | 100 | 2.61 | 2.41 | –
CCC(C)(C)N(C)Cc1cc(O)c2c(c1OC)C[C@H]1C[C@H]3[C@H](N(C)C)C(O)=C(C(N)=O)C(=O)[C@@]3(O)C(O)=C1C2=O [Compound S24-9-19] | 100 | 100 | – | – | –
COc1c(CN2[C@H](C)CCC[C@@H]2C)cc(O)c2c1C[C@H]1C[C@H]3[C@H](N(C)C)C(O)=C(C(N)=O)C(=O)[C@@]3(O)C(O)=C1C2=O [Compound S24-9-25] | 100 | 100 | 2.99 | 1.71 | –
CN(C)[C@@H]1C(O)=C(C(N)=O)C(=O)[C@@]2(O)C(O)=C3C(=O)c4c(O)cc(CN5CCCC5)c(C(F)(F)F)c4C[C@H]3C[C@@H]12 [Compound S25-11-1] | 100 | 100 | 3.97 | 1.84 | –
CN(C)[C@@H]1C(O)=C(C(N)=O)C(=O)[C@@]2(O)C(O)=C3C(=O)c4c(O)cc(CN[C@H]5CC6CCC5C6)c(C(F)(F)F)c4C[C@H]3C[C@@H]12 (stereo partly drawn) [Compound S25-11-12] | 0 | 20 | – | – | –
C[C@H]1CCCN1Cc1cc(O)c2c(c1C(F)(F)F)C[C@H]1C[C@H]3[C@H](N(C)C)C(O)=C(C(N)=O)C(=O)[C@@]3(O)C(O)=C1C2=O [Compound S25-11-48] | 100 | 100 | – | – | –
CN(C)[C@@H]1C(O)=C(C(N)=O)C(=O)[C@@]2(O)C(O)=C3C(=O)c4c(O)cc(CN5CCCCCC5)c(C(F)(F)F)c4C[C@H]3C[C@@H]12 [Compound S25-11-56] | 67 | 33 | – | – | –
CN(C)[C@@H]1C(O)=C(C(N)=O)C(=O)[C@@]2(O)C(O)=C3C(=O)c4c(O)cc(CN5CCCCC5)c(C(F)(F)F)c4C[C@H]3C[C@@H]12 [Compound S25-11-68] | 50 | 83 | – | – | –
CC(C)[C@@H](C)NCc1cc(O)c2c(c1C(F)(F)F)C[C@H]1C[C@H]3[C@H](N(C)C)C(O)=C(C(N)=O)C(=O)[C@@]3(O)C(O)=C1C2=O [Compound S25-11-171] | 83 | 17 | – | – | –
CN(C)[C@@H]1C(O)=C(C(N)=O)C(=O)[C@@]2(O)C(O)=C3C(=O)c4c(O)cc(C(C)(C)N(C)CC5CCCC5)c(F)c4C[C@H]3C[C@@H]12 [Compound S27-9-5] | 83 | 67 | – | – | –
CC(C)CN(C)C(C)(C)c1cc(O)c2c(c1Cl)C[C@H]1C[C@H]3[C@H](N(C)C)C(O)=C(C(N)=O)C(=O)[C@@]3(O)C(O)=C1C2=O [Compound S27-9-7] | 17 | 33 | – | – | –

— patent US9315451B2, “Tetracycline compounds” (priority 2009, dated 2016)
